Experiments:
[1] = tested on: maternal decidua (DECI) chamber; assay: LPS induced inflammation propagation in FMI-OOC, cytokines in cell supernatant; format: cell-based
Experimental: (§1) FIG. 12A illustrates after lipopolysaccharide (LPS) treatment in the AEC chamber for 24, 48, or 72 hours, cell supernatants were collected from each cell chamber within the FMI-OOC to document LPS induced inflammation propagation. LPS induced an increase in AEC IL-8 production at 24 and 48 hours, which reached the maternal decidua chamber by 72 hours, causing an increase in IL-8. Documenting LPS induced fetal inflammation can reach the maternal compartment in 72 hours within an FMI-OOC device.
(§2) FIG. 12B illustrates after LPS treatment in the maternal decidua (DECI) chamber for 24, 48, or 72 hours, cell supernatants were collected from each cell chamber within the FMI-OOC to document LPS induced inflammation propagation. LPS induced an increase in DECI IL-6 production at 24, which reached the fetal AEC chamber by 24 hours, causing a rise in IL-8 that increased over 72 hours. Documenting LPS induced maternal inflammation can reach the fetal compartment in 72 hours within an FMI-OOC device.
(§3) The device described here expands the previously described two-chamber coculture model into a four-chamber coculture model to include both fetal and maternal cell components. The fetal membrane-decidua interface model (FMI-OOC) composed of four coculture compartments interconnected through arrays of microfluidic channels (FIG. 10 and FIG. 11). Here, three cell types from the fetal side (AEC, AMC, chorion mesenchymal cells (CMC)/chorion trophoblast (CT)) and one from the maternal side (decidua cells) were used, establishing the first OOC model that contains both fetal and maternal cells. Cell loading concentration into each chamber mimicked those of in utero cell ratios of the fetal membrane tissue. The microfluidic channel array prevents cells from flowing into the neighboring compartments during initial cell loading, allow localized drug treatment of each cell layer, and allow taking supernatant from each layer independently for local biochemical analysis. At the same time, these channels allow biochemicals to diffuse between the layers, and also permit cell migration and transition.

[2] = tested on: AEC chamber; assay: as above; format: cell-based
Experimental: as §1, §2, §3

[3] = tested on: amnion epithelial cells (AECs); assay: Cell migration through type IV collagen-filled microchannels of AM-OOC (bright field microscopy); format: cell-based, human; details: coculture, OS (CSE) cotreatment in both chambers
Description: Before using the AM-OOC, devices were washed 3 times with PBS and coated with Matrigel as previously described. The next day, devices were washed 3 times with complete DMEM-F12 medium before cell seeding. Primary cells were then trypsinized and stained with live cell dyes for green fluorescent protein (GFP) (for AEC; CellLight Histone 2B-GFP) or red fluorescent protein (RFP) (for AMC; CellLight Histone 2B-RFP) following the protocol provided by the company (10594 and 10595; Thermo Fisher Scientific, Waltham, MA, USA). Then, 120,000 AECs were loaded into the outer chamber, and 40,000 AMCs were loaded into the inner chamber of the AM-OOC. The AM-OOCs were incubated at 37° C. with 5% CO2 for 24 h before localized treatment (see next section).
To test the effect of OS on cellular transition in the amnion membrane, each AM-OOC was treated with one of the following for 48 h: 1) normal cell culture conditions (control DMEM-F12 medium); 2) OS conditions [induced by treating cells with cigarette smoke extract (CSE)] diluted 1:25 in AEC medium or diluted 1:75 in AMC medium; and 3) to verify the effect of OS, cells were cotreated with an OS inducer (CSE) and an antioxidant or stress signaler p38 MAPK inhibitor [N-acetyl-L-cysteine (NAC, 15 mM, A7250; MilliporeSigma] (23, 29) and SB203580 ([…], S8307; MilliporeSigma) (23, 29), a p38 MAPK inhibitor and a known inducer of EMT. […]

lipopolysaccharide [LPS]
IL-8 in maternal decidua chamber ([1]; LPS treatment in the AEC chamber, by 72 hours): increase
DECI IL-6 production ([1]; LPS treatment in the maternal decidua (DECI) chamber, at 24): increase
AEC IL-8 production ([2]; LPS treatment in the AEC chamber, at 24 and 48 hours): increase
IL-8 in fetal AEC chamber ([2]; LPS treatment in the maternal decidua (DECI) chamber, from 24 hours, increased over 72 hours): rise

CC(=O)N[C@@H](CS)C(=O)O [NAC, N-acetyl-L-cysteine]
effect on OS cotreatment-induced AEC transition, blocked migration and increased inflammation [3]: prevented

— US12378508B2, “Organ-on-chips that mimic human pregnancy and parturition” (The Texas A&M University System, priority 2020, dated 2025)
